Data: the supplement of paper PMC10307832

Tests used:
Assay in all cases: relative viability (nuclei count vs DMSO), 5 days (fraction); higher = more cells survive
[1] = compound: COc1cc2ncn(-c3cc(OCc4ccccc4C(F)(F)F)c(C(N)=O)s3)c2cc1OC + CC1(C)CCC(c2ccc(Cl)cc2)=C(CN2CCN(c3ccc(C(=O)NS(=O)(=O)c4ccc(N[C@H](CCN5CCOCC5)CSc5ccccc5)c(S(=O)(=O)C(F)(F)F)c4)cc3)CC2)C1 [Navitoclax] (partner 0.5 µM)
Summary of the method: (§1)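 After 5 days of treatment, lung cancer cells in 1536-well plates were fixed and stained in a single step (final 0.05% Triton X-100, 1% formaldehyde, 1 ug/ml Hoechst) and their nuclei counted on 4× images. Treatment had been applied by pin tool the day after seeding as one drug alone or as a fixed anchor-drug dose with five library-drug doses (not always all listed) in √10 steps. Relative viability is the nuclei count of treated wells divided by that of vehicle wells, and values are medians of duplicate plates.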

[2] = compound: COc1cc2ncn(-c3cc(OCc4ccccc4C(F)(F)F)c(C(N)=O)s3)c2cc1OC + C[C@@H](Oc1cc(-c2cnn(C3CCNCC3)c2)cnc1N)c1c(Cl)ccc(F)c1Cl [Crizotinib] (partner 1 µM)
Summary of the method: as §1

[3] = compound: COc1cc2ncn(-c3cc(OCc4ccccc4C(F)(F)F)c(C(N)=O)s3)c2cc1OC + O=C(CCCCCCC(=O)Nc1ccccc1)NO [Vorinostat] (partner 1 µM)
Summary of the method: as §1

[4] = compound: COc1cc2ncn(-c3cc(OCc4ccccc4C(F)(F)F)c(C(N)=O)s3)c2cc1OC + Cc1cc(Nc2cc(N3CCN(C)CC3)nc(Sc3ccc(NC(=O)C4CC4)cc3)n2)n[nH]1 [Tozasertib] (partner 0.1 µM)
Summary of the method: as §1

Cell Line | relative viability ([1]; first compound 0.05 µM) | relative viability ([1]; first compound 0.1581 µM) | relative viability ([1]; first compound 0.5 µM) | relative viability ([1]; first compound 1.581 µM) | relative viability ([1]; first compound 5 µM) | relative viability ([2]; first compound 0.05 µM) | relative viability ([2]; first compound 0.1581 µM) | relative viability ([2]; first compound 0.5 µM) | relative viability ([2]; first compound 1.581 µM) | relative viability ([2]; first compound 5 µM) | relative viability ([3]; first compound 0.05 µM) | relative viability ([3]; first compound 0.1581 µM) | relative viability ([3]; first compound 0.5 µM) | relative viability ([3]; first compound 1.581 µM) | relative viability ([3]; first compound 5 µM) | relative viability ([4]; first compound 0.05 µM) | relative viability ([4]; first compound 0.1581 µM) | relative viability ([4]; first compound 0.5 µM) | relative viability ([4]; first compound 1.581 µM) | relative viability ([4]; first compound 5 µM)
COR-L 105 | 0.837 | 0.779 | 0.509 | 0.259 | 0.24 | 0.978 | 0.831 | 0.658 | 0.215 | 0.264 | 0.728 | 0.854 | 0.815 | 0.304 | 0.254 | 0.43 | 0.383 | 0.392 | 0.284 | 0.277
LK-2 | 0.867 | 0.732 | 0.266 | 0.117 | 0.133 | 0.247 | 0.247 | 0.245 | 0.209 | 0.204 | 0.241 | 0.159 | 0.125 | 0.124 | 0.12 | 0.177 | 0.174 | 0.163 | 0.162 | 0.195
NCI-H838 | 1.2 | 1.23 | 0.733 | 0.15 | 0.135 | 1.02 | 0.932 | 0.492 | 0.124 | 0.111 | 0.577 | 0.801 | 0.477 | 0.13 | 0.132 | 0.245 | 0.258 | 0.189 | 0.25 | 0.204
SK-LU-1 | 0.641 | 0.56 | 0.794 | 0.123 | 0.113 | 0.935 | 0.832 | 0.411 | 0.296 | 0.313 | 0.615 | 0.529 | 0.301 | 0.304 | 0.257 | 0.306 | 0.301 | 0.285 | 0.225 | 0.206
NCI-H2023 | 0.977 | 1.1 | 0.867 | 0.0884 | 0.0956 | 0.605 | 0.67 | 0.424 | 0.138 | 0.0906 | 0.544 | 0.711 | 0.168 | 0.107 | 0.0613 | 0.24 | 0.341 | 0.164 | 0.132 | 0.0834
NCI-H322M | 1.24 | 1.1 | 0.863 | 0.549 | 0.629 | 0.741 | 0.94 | 0.724 | 0.419 | 0.466 | 0.933 | 0.914 | 0.78 | 0.522 | 0.428 | 0.492 | 0.475 | 0.511 | 0.547 | 0.495
NCI-H1666 | 0.814 | 1.05 | 0.308 | 0.225 | 0.205 | 0.917 | 0.913 | 0.606 | 0.289 | 0.326 | 0.954 | 0.998 | 0.584 | 0.561 | 0.527 | 0.569 | 0.507 | 0.388 | 0.343 | 0.39
NCI-H1648 |  |  |  |  |  |  |  |  |  |  | 0.37 | 0.523 | 0.203 | 0.267 | 0.186 | 0.455 | 0.371 | 0.157 | 0.235 | 0.182
NCI-H2087 | 1.04 | 0.974 | 0.194 | 0.136 | 0.134 | 0.934 | 0.793 | 0.32 | 0.18 | 0.139 | 0.639 | 0.573 | 0.163 | 0.0594 | 0.121 | 0.255 | 0.253 | 0.144 | 0.126 | 0.114
LU99A | 0.87 | 0.786 | 0.434 | 0.169 | 0.124 | 0.59 | 0.526 | 0.579 | 0.244 | 0.197 | 0.445 | 0.401 | 0.196 | 0.123 | 0.115 | 0.224 | 0.246 | 0.247 | 0.241 | 0.246
HCC-366 | 1.03 | 1.03 | 0.313 | 0.0106 | 0.0086 | 0.788 | 0.545 | 0.117 | 0.013 | 0.0129 | 0.347 | 0.3 | 0.0923 | 0.0208 | 0.0152 | 0.101 | 0.12 | 0.0568 | 0.0457 | 0.046
EKVX | 0.96 | 0.814 | 0.91 | 0.35 | 0.486 | 1.04 | 1.04 | 0.731 | 0.225 | 0.563 | 0.745 | 0.836 | 0.477 | 0.363 | 0.167 | 0.371 | 0.408 | 0.311 |  | 0.229
NCI-H522 |  |  |  |  |  |  |  |  |  |  | 0.962 | 1.1 | 0.733 | 0.292 | 0.237 | 0.481 | 0.549 | 0.58 | 0.536 | 0.454
NCI-H1755 | 1.04 | 0.957 | 0.653 | 0.222 | 0.183 | 0.829 | 0.828 | 0.644 | 0.389 | 0.334 | 0.781 | 0.738 | 0.631 | 0.447 | 0.354 | 0.517 | 0.553 | 0.518 | 0.376 | 0.285
NCI-H650 |  |  |  |  |  | 0.714 | 0.684 | 0.4 | 0.15 | 0.289 | 0.425 | 0.438 | 0.279 | 0.137 | 0.143 | 0.66 | 0.671 | 0.35 | 0.173 | 0.237
LC-2-ad | 0.359 | 0.209 | 0.0767 | 0.0906 | 0.0667 | 0.485 | 0.422 | 0.295 | 0.212 | 0.287 | 0.559 | 0.543 | 0.129 | 0.161 | 0.129 | 0.439 | 0.512 | 0.273 | 0.359 | 0.367

Cell Line | relative viability ([1]; first compound 0.05 µM) | relative viability ([1]; first compound 0.1581 µM) | relative viability ([1]; first compound 0.5 µM) | relative viability ([1]; first compound 1.581 µM) | relative viability ([1]; first compound 5 µM) | relative viability ([2]; first compound 0.05 µM) | relative viability ([2]; first compound 0.1581 µM) | relative viability ([2]; first compound 0.5 µM) | relative viability ([2]; first compound 1.581 µM) | relative viability ([2]; first compound 5 µM) | relative viability ([3]; first compound 0.05 µM) | relative viability ([3]; first compound 0.1581 µM) | relative viability ([3]; first compound 0.5 µM) | relative viability ([3]; first compound 1.581 µM) | relative viability ([3]; first compound 5 µM) | relative viability ([4]; first compound 0.05 µM) | relative viability ([4]; first compound 0.1581 µM) | relative viability ([4]; first compound 0.5 µM) | relative viability ([4]; first compound 1.581 µM) | relative viability ([4]; first compound 5 µM)
NCI-H1793 | 0.928 | 0.544 | 0.187 | 0.221 | 0.139 |  |  |  |  |  | 0.553 | 0.42 | 0.328 | 0.17 | 0.113 | 0.34 | 0.296 | 0.292 | 0.239 | 0.191
HCC-827 | 0.988 | 0.99 | 0.874 | 0.287 | 0.201 | 0.925 | 0.871 | 0.698 | 0.341 | 0.287 | 0.995 | 0.887 | 0.763 | 0.376 | 0.445 | 0.411 | 0.397 | 0.37 | 0.344 | 0.313
HCC-78 | 0.752 | 0.773 | 0.498 | 0.51 | 0.63 | 0.314 | 0.345 | 0.245 | 0.257 | 0.257 | 0.483 | 0.396 | 0.281 | 0.261 | 0.223 | 0.517 | 0.345 | 0.325 | 0.222 | 0.292
NCI-H2085 | 1.2 | 1.09 | 0.593 | 0.367 | 0.365 | 0.842 | 0.848 | 0.629 | 0.517 | 0.309 | 0.722 | 0.796 | 0.541 | 0.386 | 0.302 | 0.761 | 0.738 | 0.403 | 0.407 | 0.454
PC-3 [JPC-3] | 0.757 | 0.715 | 0.471 | 0.27 | 0.238 | 0.987 | 1.01 | 0.778 | 0.34 | 0.27 | 0.907 | 0.82 | 0.515 | 0.464 | 0.31 | 0.892 | 0.856 | 0.4 | 0.33 | 0.369
NCI-H2342 |  |  |  |  |  |  |  |  |  |  | 0.917 | 0.744 | 0.595 | 0.693 | 0.527 | 0.611 | 0.54 | 0.333 | 0.334 | 0.337
ABC-1 |  |  |  |  |  | 1.34 | 0.988 | 0.875 | 0.152 | 0.291 | 1.59 | 0.849 | 0.58 | 0.369 | 0.305 | 0.219 | 0.223 | 0.155 | 0.251 | 0.255
NCI-H358 |  |  |  |  |  | 0.481 | 0.575 | 0.164 | 0.132 | 0.213 | 0.589 | 0.541 | 0.0993 | 0.0786 | 0.0711 | 0.0899 | 0.0976 | 0.118 | 0.0944 | 0.0929
EBC-1 | 0.36 | 0.283 | 0.123 | 0.119 | 0.153 | 0.19 | 0.204 | 0.17 | 0.169 | 0.14 |  |  |  |  |  |  |  |  |  | 
NCI-H661 |  |  |  |  |  | 0.869 | 0.937 | 0.85 | 0.572 | 0.855 | 0.843 | 0.753 | 0.293 | 0.269 | 0.223 | 0.37 | 0.348 | 0.327 | 0.301 | 0.321
NCI-H1792 | 0.633 | 0.627 | 0.604 | 0.188 | 0.13 | 1.05 | 0.937 | 0.752 | 0.459 | 0.0845 |  |  |  |  |  |  |  |  |  | 
A549 | 1.25 | 1.19 | 0.294 | 0.0413 | 0.0332 | 0.864 | 0.612 | 0.104 | 0.0479 | 0.102 |  |  |  |  |  |  |  |  |  | 
NCI-H1703 | 1.38 | 1.28 | 0.509 | 0.124 | 0.0953 | 0.962 | 0.813 | 0.144 | 0.117 | 0.206 |  |  |  |  |  |  |  |  |  | 
LCLC-103H |  |  |  |  |  | 0.999 | 1.11 | 0.851 | 0.523 | 0.267 | 0.808 | 0.799 | 0.327 | 0.261 | 0.199 | 0.395 | 0.457 | 0.33 | 0.252 | 0.217
NCI-H1563 |  |  |  |  |  | 0.832 | 0.968 | 0.872 | 0.661 | 0.582 |  |  |  |  |  |  |  |  |  | 
NCI-H1395 | 1.17 | 1.17 | 0.611 | 0.447 | 0.384 |  |  |  |  |  | 0.711 | 0.688 | 0.466 | 0.354 | 0.25 | 0.774 | 0.898 | 0.636 | 0.36 | 0.343
